This is an account of results in ChEMBL document CHEMBL2440076, “New triarylpyrazoles as broad-spectrum anticancer agents: design, synthesis, and biological evaluation” (Eur J Med Chem, 2013).

Holding throughout (format): functional
Assay [1] concerns SN12C. In words: Growth inhibition of human SN12C cells assessed as cell growth at 10 uM after 48 hrs by sulforhodamine B assay. Conditions: read-out: Activity.
For assay [2], the system named is RXF 393. In words: Growth inhibition of human RXF393 cells assessed as cell growth at 10 uM after 48 hrs by sulforhodamine B assay. The following applies: RXF 393, 48 h, read-out: Activity. In general terms: The SRB assay estimates cell density from bound dye.
For assay [3], the system named is KM12. The experiment in a line: Growth inhibition of human KM12 cells assessed as cell growth at 10 uM after 48 hrs by sulforhodamine B assay. Conditions: KM12, 48 h, read-out: Activity.
Assay [4] concerns SK-MEL-2. In words: Growth inhibition of human SK-MEL-2 cells assessed as cell growth at 10 uM after 48 hrs by sulforhodamine B assay. The following applies: SK-MEL-2, 48 h, read-out: Activity.
Assay [5] deals with LOX IMVI. The experiment in a line: Growth inhibition of human LOXIMVI cells after 48 hrs by sulforhodamine B assay.
Assay [6] deals with DU-145. The experiment in a line: Growth inhibition of human DU145 cells assessed as cell growth at 10 uM after 48 hrs by sulforhodamine B assay. Conditions: DU-145, 48 h, read-out: Activity.
Assay [7] relates to SK-OV-3. In words: Growth inhibition of human SKOV3 cells after 48 hrs by sulforhodamine B assay. Conditions: SK-OV-3, 48 h; for CC50: read-out: LC50 (the source's name).
The test system of assay [8] is K562. The experiment in a line: Growth inhibition of human K562 cells after 48 hrs by sulforhodamine B assay. The following applies: K562, 48 h; for CC50: read-out: LC50 (the source's name).
The test system of assay [9] is SK-MEL-2. In words: Growth inhibition of human SK-MEL-2 cells after 48 hrs by sulforhodamine B assay. Conditions: SK-MEL-2, 48 h.
The test system of assay [10] is Malme-3M. In words: Growth inhibition of human MALME-3M cells assessed as cell growth at 10 uM after 48 hrs by sulforhodamine B assay. The following applies: read-out: Activity.
Assay [11] concerns HOP-62. In words: Growth inhibition of human HOP62 cells after 48 hrs by sulforhodamine B assay. The following applies: HOP-62, 48 h; for CC50: read-out: LC50 (the source's name).
For assay [12], the system named is UACC-62. In words: Growth inhibition of human UACC62 cells after 48 hrs by sulforhodamine B assay. Conditions: UACC-62, 48 h.
Assay [13] concerns OVCAR-4. In words: Growth inhibition of human OVCAR4 cells assessed as cell growth at 10 uM after 48 hrs by sulforhodamine B assay. Conditions: OVCAR-4, 48 h, read-out: Activity.
Assay [14] deals with A498. The experiment in a line: Growth inhibition of human A498 cells assessed as cell growth at 10 uM after 48 hrs by sulforhodamine B assay. Conditions: A498, 48 h, read-out: Activity.

Take `COc1cc(-c2nn(-c3cccc(NC(=O)Nc4ccc(Cl)c(C(F)(F)F)c4)c3)cc2-c2ccncc2)ccc1Cl`: the growth at 10 µM is 12.6% in assay [1]; -27.8% in assay [2]; 2.88% in assay [3]; -57.8% in assay [4]; 20.3% in assay [6]; -14.9% in assay [10]. For the same compound, the values for the growth at 10 µM in assay [13] and in [14] were 20.8% and -6.71%, respectively. Further, the 50% growth inhibitory concentration (GI50) (commonly the concentration that inhibits growth by half) in assay [5] was found to be 1.17 µM; in assay [7] it was 1.45 µM; in assay [8], 1.21 µM; in [9], 1.01 µM; in assay [11], 1.31 µM; in assay [12], 0.737 µM. Further, the LC50 (commonly the concentration lethal to half of the exposed cells or organisms) in assay [5] amounted to 17.9 µM. Further, the total growth inhibition concentration (TGI) (commonly the concentration giving total growth inhibition) in assay [5] is 4.61 µM; in [7], 13 µM; in assay [8], above 32.5 µM; in [9], 2.58 µM; in [11] it was 6.49 µM; in assay [12], 2.09 µM. For the same compound, the CC50 in [7] is above 32.5 µM; in [8], above 32.5 µM; in assay [11] it was 31 µM. The values for the LC50 (50% lethal concentration) in assay [9] and in [12] were 17.5 µM and 11.6 µM, respectively.
With `COc1cc(-c2nn(-c3cccc(NC(=O)c4ccc(Br)c(C)c4)c3)cc2-c2ccncc2)ccc1Cl`, the growth at 10 µM in assay [1] is 81%; in assay [2], 41.7%; in [3], 82.7%; in [4] it was 58.2%; in assay [6] it was 102%; in assay [10], 52.7%. Further, the results for the growth at 10 µM in [13] and in assay [14] were 86.2% and 68%, respectively.
Consider `COc1cc(-c2nn(-c3cccc(NC(=O)Nc4ccccc4)c3)cc2-c2ccncc2)ccc1Cl`, for which the growth at 10 µM is 86.2% in assay [1]; 72.8% in assay [2]; 73.7% in assay [3]; 77% in assay [4]; 101% in [6]; 57.7% in assay [10]. Further, the growth at 10 µM was determined as 90.5% in assay [13] and 79.7% in assay [14].
As for `O=C(Nc1cccc(-n2cc(-c3ccncc3)c(-c3ccc(Cl)c(O)c3)n2)c1)Nc1ccc(Cl)c(Cl)c1`, the growth at 10 µM was 18% in [1]; 4.46% in [2]; 8.15% in assay [3]; -25.4% in assay [4]; 25.9% in [6]; 10.3% in [10]. The growth at 10 µM in assay [13] turned out to be 29.4%; in assay [14], 31.1%. The 50% growth inhibitory concentration (GI50) in [5] came to 0.939 µM; in [7] it was 1.2 µM; in [8] it was 1.41 µM; in assay [9], 1.03 µM; in assay [11], 2.08 µM; in assay [12], 1.11 µM. In assay [5], this compound came in with an LC50 of 15 µM. Also, the TGI in assay [5] is 3.57 µM; in assay [7], above 32.5 µM; in assay [8], above 32.5 µM; in assay [9], 2.64 µM; in [11], 17.6 µM; in [12], 5.21 µM. Besides, the CC50 in assay [7], in [8] and in assay [11] was above 32.5 µM throughout. Moreover, the figures for the LC50 (50% lethal concentration) in [9] and in [12] were above 32.5 µM and 29.2 µM, respectively.
Turning to `COc1cc(-c2nn(-c3cccc(NC(=O)c4ccccc4)c3)cc2-c2ccncc2)ccc1Cl`, the growth at 10 µM in [1] was 28.8%; in assay [2] it was -19.2%; in assay [3], 12.3%; in assay [4], -42.5%; in assay [6], 11.6%; in assay [10] it was 22.4%. Moreover, the growth at 10 µM is 46.5% in assay [13] and -23.2% in [14]. Besides, the 50% growth inhibitory concentration (GI50) in [5] was 0.567 µM; in [7] it was 1.07 µM; in [8], 0.421 µM; in assay [9] it was 0.389 µM; in [11], 8.34 µM; in assay [12], 0.692 µM. The compound further registered an LC50 in [5] above 100 µM. Also, the TGI in assay [5] was above 100 µM; in assay [7], above 100 µM; in [8], above 100 µM; in [9], 4.97 µM; in assay [11] it was above 100 µM; in assay [12], above 100 µM. For the same compound, the CC50 in assay [7], in assay [8] and in assay [11] was above 100 µM throughout. Moreover, the LC50 (50% lethal concentration) in [9] and in assay [12] was above 100 µM throughout.
For `COc1cc(-c2nn(-c3cccc(NC(=O)c4ccc(Cl)c(C(F)(F)F)c4)c3)cc2-c2ccncc2)ccc1Cl`, the growth at 10 µM in assay [1] was 57.3%; in [2] it was -0.4%; in assay [3], 28.8%; in assay [4], 18.9%; in assay [6], 65.4%; in [10], 16.8%. The growth at 10 µM is 66% in assay [13] and 11.8% in assay [14]. The GI50 stood at 1.92 µM in assay [5]; 9.29 µM in assay [7]; 1.61 µM in [8]; 1.9 µM in assay [9]; 13.1 µM in assay [11]; 2.1 µM in assay [12]. The compound further came in with a 50% lethal concentration (LC50) in assay [5] above 32.5 µM. Besides, the concentration for total growth inhibition (TGI) in assay [5] was above 32.5 µM; in assay [7] it was above 32.5 µM; in [8], above 32.5 µM; in assay [9] it was 19.7 µM; in [11], above 32.5 µM; in assay [12], above 32.5 µM. The CC50 in assay [7], in [8] and in assay [11] was above 32.5 µM in each case. Also, the LC50 (50% lethal concentration) in assay [9] and in assay [12] was above 32.5 µM each time.
In the case of `Cc1cc(C(=O)Nc2cccc(-n3cc(-c4ccncc4)c(-c4ccc(Cl)c(O)c4)n3)c2)ccc1Br`, the growth at 10 µM in assay [1] turned out to be 101%; in assay [2], 91%; in [3], 97.3%; in assay [4], 106%; in assay [6], 103%; in assay [10], 82.6%. Moreover, the growth at 10 µM turned out to be 108% in assay [13] and 102% in [14].
With `O=C(Nc1cccc(-n2cc(-c3ccncc3)c(-c3ccc(Cl)c(O)c3)n2)c1)c1ccc(Cl)c(C(F)(F)F)c1`, the growth at 10 µM in [1] was found to be 98.6%; in assay [2], 104%; in [3], 88.4%; in assay [4], 93.7%; in [6], 95%; in assay [10], 79.5%. Also, the figures for the growth at 10 µM in [13] and in assay [14] were 111% and 105%, respectively.
With `O=C(Nc1cccc(-n2cc(-c3ccncc3)c(-c3ccc(Cl)c(O)c3)n2)c1)Nc1ccc(Cl)c(C(F)(F)F)c1`, the growth at 10 µM in assay [1] was 7.46%; in [2], -76%; in [3], -27.3%; in [4], -60.4%; in assay [6], -17%; in assay [10] it was -16.6%. Further, the growth at 10 µM in assay [13] was -3.42%; in [14], 11.2%. Moreover, the GI50 was 0.554 µM in assay [5]; 1.34 µM in [7]; 0.921 µM in [8]; 0.798 µM in [9]; 1.22 µM in assay [11]; 0.627 µM in assay [12]. This compound had a median lethal concentration (LC50) in assay [5] of 2.39 µM. Further, the concentration for total growth inhibition (TGI) in [5] is 1.15 µM; in [7] it was 14.9 µM; in [8] it was above 32.5 µM; in assay [9], 1.73 µM; in assay [11], 7.83 µM; in [12], 1.45 µM. Besides, the CC50 in [7], in assay [8] and in assay [11] was above 32.5 µM each time. Further, the figures for the LC50 (50% lethal concentration) in [9] and in assay [12] were 5.84 µM and 3.16 µM, respectively.
As for `O=C(Nc1cccc(-n2cc(-c3ccncc3)c(-c3ccc(Cl)c(O)c3)n2)c1)c1ccccc1`, the growth at 10 µM is 79.3% in assay [1]; 0.59% in assay [2]; 70.1% in [3]; 67.9% in assay [4]; 56.9% in assay [6]; 53.1% in assay [10]. Further, the growth at 10 µM in assay [13] was 40.7%; in assay [14] it was 72.3%.
